From US4656166A, “Antibiotic compounds derived from cephalosporins, process for their production and pharmaceutical compositions” (Sanofi, priority 1983, dated 1987)
In brackets after ≈: the same amount, converted by molar mass.

What was measured:
Type in all cases: cell-based
Escherichia coli SOL 90 = experiment: MIC, in vitro dilution method, Escherichia coli SOL 90 (Table III); settings: SOL90; Escherichia coli SOL 90; dilution method; read-out: MIC
Description: (§1) The products of the invention have been studied as regards their pharmacological properties and, more especially, bacteriostatic action. This has been determined in vitro by the dilution method, and the study was on Gram negative strains.
(§2) Results, expressed in minimum inhibiting concentrations (MIC-- μg/ml), are collected in the following table (Table III).

[1] = test system: Proteus vulgaris RL 99 bis; experiment: MIC, in vitro dilution method, Proteus vulgaris RL 99 bis (Table III); settings: RL99BIS; Proteus vulgaris RL 99 bis; dilution method; read-out: MIC
Description: as §1, §2

[2] = test system: Serrtia liquefaciens SL 1326 S; experiment: MIC on strain not producing beta-lactamase, Serratia liquefaciens SL 1326 S (Table IV); settings: SL1326S, not producing beta-lactamases
Method: (§3) To evaluate the stability of these products towards beta-lactamases, their MIC was determined on isogenic strains producing and not producing beta-lactamases.
(§4) The results are expressed in μg/ml in Table IV.

Klebsiella RO 30 = experiment: MIC, in vitro dilution method, Klebsiella RO 30 (Table III); settings: RO30; Klebsiella RO 30; dilution method; read-out: MIC
Description: as §1, §2

Pseudomonas RL 112 = experiment: MIC, in vitro dilution method, Pseudomonas RL 112 (Table III); settings: RL112
Description: as §1, §2

Escherichia coli 255/L.7 = experiment: MIC on strain not producing beta-lactamase, Escherichia coli 255/L.7 (Table IV); settings: Escherichia coli 255/L.7 *, not producing beta-lactamases; read-out: MIC
Method: as §3, §4

Citrobacter RL 49 = experiment: MIC, in vitro dilution method, Citrobacter RL 49 (Table III); settings: RL49; Citrobacter RL 49; dilution method; read-out: MIC
Description: as §1, §2

Serratia RL 72 = experiment: MIC, in vitro dilution method, Serratia RL 72 (Table III); settings: RL72
Description: as §1, §2

[3] = test system: Serrtia liquefaciens SL/326 A; experiment: MIC on beta-lactamase producing strain Serratia liquefaciens SL/326 A (Table IV)
Method: as §3, §4

Enterobacter RO 154 = experiment: MIC, in vitro dilution method, Enterobacter RO 154 (Table III); settings: RO154; Enterobacter RO 154; dilution method; read-out: MIC
Description: as §1, §2

[4] = test system: Proteus vulgaris GN 76/C.1; experiment: MIC on beta-lactamase producing strain Proteus vulgaris GN 76/C.1 (Table IV); settings: GN76; Proteus vulgaris GN 76/C.1, producing beta-lactamases; read-out: MIC
Method: as §3, §4

Escherichia coli 255 = experiment: MIC on beta-lactamase producing strain Escherichia coli 255 (Table IV); settings: Escherichia coli 255, producing beta-lactamases; read-out: MIC
Method: as §3, §4

Row | SMILES | MIC (Escherichia coli SOL 90) [µg/mL] | MIC [1] [µg/mL] | MIC [2] [µg/mL] | MIC (Klebsiella RO 30) [µg/mL] | MIC (Pseudomonas RL 112) [µg/mL] | MIC (Escherichia coli 255/L.7) [µg/mL] | MIC (Citrobacter RL 49) [µg/mL] | MIC (Serratia RL 72) [µg/mL] | MIC [3] [µg/mL] | MIC (Enterobacter RO 154) [µg/mL] | MIC [4] [µg/mL] | MIC (Escherichia coli 255) [µg/mL]
1 | CC(N)CC(=O)OCC1=C(C(=O)O)N2C(=O)C(NC(=O)C(=NOC(C)(C)C(=O)O)c3csc(N)n3)C2[S+]([O-])C1 (centres unmarked) [42 024] | 0.5 (≈ 0.852 µM) | 0.25 (≈ 0.426 µM) | 0.06 (≈ 0.102 µM) | 0.25 (≈ 0.426 µM) | 4 (≈ 6.82 µM) | ≤ 0.12 | 0.5 (≈ 0.852 µM) | 0.5 (≈ 0.852 µM) | 0.25 (≈ 0.426 µM) | 2 (≈ 3.41 µM) | 0.25 (≈ 0.426 µM) | 0.25 (≈ 0.426 µM)
2 | CC(C)(ON=C(C(=O)NC1C(=O)N2C(C(=O)O)=C(CSC(=O)C3CCN(C(=O)CN)CC3)C[S+]([O-])C12)c1csc(N)n1)C(=O)O (centres unmarked) [compound 42673] |  |  | 0.0625 (≈ 0.0911 µM) |  |  | 0.25 (≈ 0.365 µM) |  |  | 0.25 (≈ 0.365 µM) |  | 0.25 (≈ 0.365 µM) | 0.25 (≈ 0.365 µM)
3 | CC(C)NCc1ccc(C(=O)OCC2=C(C(=O)O)N3C(=O)C(NC(=O)/C(=N\OC(C)(C)C(=O)O)c4csc(N)n4)C3[S+]([O-])C2)cc1 (centres unmarked) [42 397] | ≤ 0.125 | ≤ 0.125 |  | ≤ 0.125 | 8 (≈ 11.8 µM) |  | ≤ 0.125 | 1 (≈ 1.48 µM) |  | ≤ 0.125 |  | 
4 | C[C@H](N)C(=O)OCC1=C(C(=O)O)N2C(=O)C(NC(=O)/C(=N\OC(C)(C)C(=O)O)c3csc(N)n3)C2[S+]([O-])C1 (some centres unmarked) [41 733] | 2 (≈ 3.49 µM) | 0.5 (≈ 0.873 µM) |  | 1 (≈ 1.75 µM) | 8 (≈ 14 µM) |  | 2 (≈ 3.49 µM) | 8 (≈ 14 µM) |  | 1 (≈ 1.75 µM) |  | 
5 | Nc1nc(C(=NOC2(C(=O)O)CCC2)C(=O)NC2C(=O)N3C(C(=O)O)=C(CSC(=O)C4CCNCC4)C[S+]([O-])C23)cs1 (centres unmarked) [compound 42219] | 0.5 (≈ 0.78 µM) | ≤ 0.12 |  | 0.5 (≈ 0.78 µM) | 4 (≈ 6.24 µM) |  | ≤ 0.12 | 1 (≈ 1.56 µM) |  | 0.5 (≈ 0.78 µM) |  | 
6 | C[C@@H](N)C(=O)OCC1=C(C(=O)O)N2C(=O)C(NC(=O)/C(=N\OC(C)(C)C(=O)O)c3csc(N)n3)C2[S+]([O-])C1 (some centres unmarked) [41 891] | 0.5 (≈ 0.873 µM) | 0.5 (≈ 0.873 µM) |  | 0.5 (≈ 0.873 µM) | 8 (≈ 14 µM) |  | 0.5 (≈ 0.873 µM) | 4 (≈ 6.99 µM) |  | 8 (≈ 14 µM) |  | 
7 | Cc1cc(C(=O)OCC2=C(C(=O)O)N3C(=O)C(NC(=O)/C(=N\OC(C)(C)C(=O)O)c4csc(N)n4)C3[S+]([O-])C2)ccc1CN (centres unmarked) [42 380] | ≤ 0.125 | ≤ 0.125 |  | ≤ 0.125 | 4 (≈ 6.17 µM) |  | ≤ 0.125 | 1 (≈ 1.54 µM) |  | ≤ 0.125 |  | 
8 | Nc1nc(/C(=N/OC2(C(=O)O)CCC2)C(=O)NC2C(=O)N3C(C(=O)O)=C(COC(=O)C4(N)CCCC4)C[S+]([O-])C23)cs1 (centres unmarked) [42 210] | 1 (≈ 1.6 µM) | 0.25 (≈ 0.4 µM) |  | 0.5 (≈ 0.8 µM) | 4 (≈ 6.4 µM) |  | 0.5 (≈ 0.8 µM) | 1 (≈ 1.6 µM) |  | 0.25 (≈ 0.4 µM) |  | 
9 | CC(C)(O/N=C(\C(=O)NC1C(=O)N2C(C(=O)O)=C(COC(=O)c3cccc(NC(=O)CCN)c3)C[S+]([O-])C12)c1csc(N)n1)C(=O)O (centres unmarked) [42 465] | ≤ 0.125 | ≤ 0.125 |  | 0.5 (≈ 0.723 µM) | 8 (≈ 11.6 µM) |  | ≤ 0.125 | 2 (≈ 2.89 µM) |  | 0.5 (≈ 0.723 µM) |  | 
10 | CNCCCCC(=O)OCC1=C(C(=O)O)N2C(=O)C(NC(=O)/C(=N\OC(C)(C)C(=O)O)c3csc(N)n3)C2[S+]([O-])C1 (centres unmarked) [42 029] | 0.25 (≈ 0.407 µM) | ≤ 0.12 |  | 0.25 (≈ 0.407 µM) | 8 (≈ 13 µM) |  | 0.25 (≈ 0.407 µM) | 0.5 (≈ 0.813 µM) |  | 2 (≈ 3.25 µM) |  | 
11 | Nc1nc(/C(=N/OC2(C(=O)O)CCC2)C(=O)NC2C(=O)N3C(C(=O)O)=C(COC(=O)CC4CCNCC4)C[S+]([O-])C23)cs1 (centres unmarked) [42 473] | 0.25 (≈ 0.391 µM) | ≤ 0.125 |  | ≤ 0.125 | 4 (≈ 6.26 µM) |  | ≤ 0.125 | 0.25 (≈ 0.391 µM) |  | ≤ 0.125 |  | 
